From patent US20230381774A1, “MICROFLUDIC LAB-ON-CHIP DEVICE, MATRIX, SMALL MOLECULES AND THREE-DIMENSIONAL SPHEROIDS FOR CELL REPROGRAMMING” (The Regents of the University of California, priority 2022, published 2023)

Key:
[1] = test system: promoter or enhancer regions of neuronal and mesenchymal genes; test: ATAC-seq chromatin accessibility; type: cell-based, mouse; conditions: 10 μM blebbistatin or 5 μM PF573228, 2 hours
Procedure: A total of 1,000,000 fibroblasts treated with vehicle control (DMSO), 10 μM blebbistatin or 5 μM PF573228 were collected after 2 hours and stored at −80° C. prior to sample processing. ATAC-seq was performed as described previously^47. In brief, frozen cells were thawed and washed once with PBS and then resuspended in 500 μL of cold PBS. The cell number was assessed by Cellometer Auto 2000 (Nexcelom Bioscience, Massachusetts, USA). 100,000 cells were then added to ATAC lysis buffer and centrifuged at 500 g in a pre-chilled centrifuge for 5 minutes. Supernatant was removed and the nuclei were resuspended in 50 μL of tagmentation reaction mix by pipetting up and down. The reactions were incubated at 37° C. for 30 minutes in a thermomixer with shaking at 1,000 r.p.m., and then cleaned up using the MiniElute reaction clean up kit (Qiagen). Tagmented DNA was amplified with barcoded primers. Library quality and quantity were assessed with Qubit 2.0 DNA HS Assay (ThermoFisher), Tapestation High Sensitivity D1000 Assay (Agilent Technologies), and QuantStudio® 5 System (Applied Biosystems). Equimolar pooling of libraries was performed based on QC values and sequenced on an Illumina® NovaSeq (Illumina, California, USA) with a read length configuration of 150 PE for [100]M PE reads (50M in each direction) per sample.
FASTQ files were trimmed with Trim Galore and cutadapt^48. Pair-ended reads were then aligned to the mouse reference genome (mm10) with Bowtie2^49. Mitochondrial reads and PCR duplicates were removed using SAMtools^50 and Picard (http://broadinstitute.github.io/picard/), respectively. Peaks were called over input using MACS3^51, and only peaks outside the ENCODE blacklist region were kept. All peaks from all samples were merged and featureCount^52 was used to count the mapped reads for each sample.

[2] = test system: promoter regions of Ascl1, Brn2, Myt1l and TUBB3; test: ChIP-qPCR of histone modifications at neuronal gene promoters; type: cell-based, mouse; conditions: BAM-transduced fibroblasts, day 3, relative to DMSO
Procedure: Halt™ Protease and Phosphatase Inhibitor Cocktail (ThermoFisher Scientific, 78442) was added to Cell Lysis (10 mM Tris-HCl pH 8.0, 85 mM KCl, 0.5% NP-40), Nuclei Lysis (10 mM Tris-HCl pH 7.5, 1% NP-40, 0.5% sodium deoxycholate, 0.1% SDS), and ChIP Dilution (0.01% SDS, 1.1% Triton X-100, 1.2 mM EDTA, 16.7 mM Tris-HCL pH 8.1, 167 mM NaCl) Buffers.
Three days post-Dox addition, 4×10^6 BAM-transduced fibroblasts cultured in the absence and presence of 10 μM blebbistatin and 5 μM PF573228, respectively, for 2 days were fixed using 1% formaldehyde in PBS (Fisher Scientific, BP531) for 10 minutes. 125 mM Glycine was added for 5 minutes to quench excess formaldehyde, followed by 2 washes with cold 1×PBS. Cells were scraped and collected into microcentrifuge tubes and centrifuged at 800 g at 4° C. for 5 minutes. Upon removing the supernatant, cell pellets were snap-frozen in liquid nitrogen and stored at −80° C. The cells were then resuspended and lysed in Cell Lysis Buffer and resuspended in Nuclei Lysis Buffer prior to sonication using a Branson SFX250 Sonifier at 40% amplitude, 0.7 seconds on and 1.3 seconds off, for a total of 8 minutes. […]
50 μL ChIP Elution Buffer was added to the stored internal controls from the post-sonication step. […] ChIP-qPCR data were analyzed by normalizing the DNA concentration to percent input using the relative standard curve method.

Row | SMILES | chromatin accessibility of mesenchymal genes [1] | chromatin accessibility of neuronal genes (Ascl1, Brn2, Myt1l, Tubb3) [1] | histone modifications at promoter regions of Ascl1, Brn2, Myt1l and TUBB3 [2]
1 | CS(=O)(=O)c1cccc(CNc2nc(Nc3ccc4c(c3)CCC(=O)N4)ncc2C(F)(F)F)c1 [PF573228] | slightly decrease the accessibility of mesenchymal genes | could increase the accessibility at the promoter or enhancer regions of neuronal genes | significant increases in AcH3, H3K3me3 and H3K4me1 at the promoter regions
2 | Cc1ccc2c(c1)C(=O)C1(O)CCN(c3ccccc3)C1=N2 (stereo not drawn) [blebbistatin] | slightly decreased the accessibility at the promoters or enhancer regions of some mesenchymal genes | could increase the accessibility at the promoter or enhancer regions of neuronal genes | significant increases in AcH3, H3K4me3 and H3K4me1 at all four promoter regions
